Test results taken from PubChem BioAssay AID248 (DTP/NCI, 2004).
Values joined by “and” are separate entries in the source; they are usually repeats but may differ in a detail not shown here. Equal values may be shown once. Inconclusive results and toxic doses are left out. Cut-off read from the data, not from the text of the source: active = T/C of 150% or more; inactive = T/C below 125%.

Tested on: L1210 leukemia ip in BDF1 mice, survival T/C
Assay: NCI In Vivo Anticancer Drug Screen. Data for tumor model L1210 Leukemia (intraperitoneal) in B6D2F1 (BDF1) mice
Details: endpoint: mean survival time, higher = longer survival
How it was run: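 Antitumor effect is assessed in tumor-bearing animals. Survival in the compound arm is compared with a vehicle-dosed control arm and expressed as their quotient.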

[1] = dose: 50.0 mg/kg/injection, schedule: Q01DX001 (ip), vehicle: carboxymethylcellulose (CMC)
[2] = dose: 100.0 mg/kg/injection, schedule: Q01DX001 (ip), vehicle: Klucel (hydroxypropylcellulose) (HPC)
[3] = dose: 100.0 mg/kg/injection, schedule: Q01DX009 (ip), vehicle: Klucel (hydroxypropylcellulose) (HPC)
[4] = dose: 100.0 mg/kg/injection, schedule: Q01DX009 (ip), vehicle: saline with Tween-80
[5] = dose: 200.0 mg/kg/injection, schedule: Q01DX009 (ip), vehicle: saline with Tween-80
[6] = dose: 400.0 mg/kg/injection, schedule: Q01DX001 (ip), vehicle: carboxymethylcellulose (CMC)
[7] = dose: 25.0 mg/kg/injection, schedule: Q01DX009 (ip), vehicle: Klucel (hydroxypropylcellulose) (HPC)
[8] = dose: 50.0 mg/kg/injection, schedule: Q01DX009 (ip), vehicle: Klucel (hydroxypropylcellulose) (HPC)

Measured: T/C

COc1ccc(Nc2ccnc3cc(Cl)ccc23)cc1CN(CCCl)CCCl
inactive: dose: 0.78 mg/kg/injection, schedule: Q01DX009 (ip), vehicle: saline 115 % of control | dose: 1.1 mg/kg/injection, schedule: Q01DX Z (ip), vehicle: methylcellulose (MC) 110 % of control | dose: 1.25 mg/kg/injection, schedule: Q01DX009 (ip), vehicle: Klucel (hydroxypropylcellulose) (HPC) 110 % of control | dose: 1.56 mg/kg/injection, schedule: Q01DX009 (ip), vehicle: saline 109 % of control | dose: 1.56 mg/kg/injection, schedule: Q04DX003 (ip), vehicle: saline 108 % of control | dose: 1.6 mg/kg/injection, schedule: Q01DX Z (ip), vehicle: methylcellulose (MC) 106 % of control and 118 % of control | dose: 2.4 mg/kg/injection, schedule: Q01DX Z (ip), vehicle: methylcellulose (MC) 117 % of control and 124 % of control | dose: 2.5 mg/kg/injection, schedule: Q01DX001 (ip), vehicle: Klucel (hydroxypropylcellulose) (HPC) 108 % of control | dose: 2.5 mg/kg/injection, schedule: Q01DX009 (ip), vehicle: Klucel (hydroxypropylcellulose) (HPC) 112 % of control | dose: 2.5 mg/kg/injection, schedule: Q04DX003 (ip), vehicle: Klucel (hydroxypropylcellulose) (HPC) 105 % of control | dose: 3.13 mg/kg/injection, schedule: Q01DX009 (ip), vehicle: saline 86 % of control | dose: 3.13 mg/kg/injection, schedule: Q04DX003 (ip), vehicle: saline 106 % of control | dose: 3.6 mg/kg/injection, schedule: Q01DX Z (ip), vehicle: methylcellulose (MC) 110 % of control and 112 % of control | dose: 5.0 mg/kg/injection, schedule: Q01DX001 (ip), vehicle: Klucel (hydroxypropylcellulose) (HPC) 107 % of control | dose: 5.0 mg/kg/injection, schedule: Q04DX003 (ip), vehicle: Klucel (hydroxypropylcellulose) (HPC) 106 % of control | dose: 10.0 mg/kg/injection, schedule: Q01DX001 (ip), vehicle: Klucel (hydroxypropylcellulose) (HPC) 103 % of control | dose: 10.0 mg/kg/injection, schedule: Q04DX003 (ip), vehicle: Klucel (hydroxypropylcellulose) (HPC) 105 % of control | [1] 106 % of control

O=C(Nc1cnc2ccccc2c1)Nc1cnc2ccccc2c1
inactive: dose: 87.5 mg/kg/injection, schedule: Q01DX009 (ip), vehicle: Klucel (hydroxypropylcellulose) (HPC) 87 % of control | dose: 175.0 mg/kg/injection, schedule: Q01DX009 (ip), vehicle: Klucel (hydroxypropylcellulose) (HPC) 97 % of control | dose: 350.0 mg/kg/injection, schedule: Q01DX009 (ip), vehicle: Klucel (hydroxypropylcellulose) (HPC) 89 % of control

COC1C(O)C(O)OC(CO)C1O (stereo unspecified)
inactive: dose: 50.0 mg/kg/injection, schedule: Q04DX003 (ip), vehicle: saline 112 % of control | dose: 100.0 mg/kg/injection, schedule: Q04DX003 (ip), vehicle: saline 96 % of control | dose: 200.0 mg/kg/injection, schedule: Q04DX003 (ip), vehicle: saline 104 % of control | dose: 400.0 mg/kg/injection, schedule: Q04DX003 (ip), vehicle: saline 96 % of control | dose: 500.0 mg/kg/injection, schedule: Q01DX009 (ip), vehicle: saline 94 % of control | dose: 1000.0 mg/kg/injection, schedule: Q01DX009 (ip), vehicle: saline 104 % of control

C1=C(c2ccc3ccccc3c2)Nc2ccccc2S1
inactive: dose: 100.0 mg/kg/injection, schedule: Q04DX002 (ip), vehicle: gum acacia 96 % of control | dose: 200.0 mg/kg/injection, schedule: Q04DX002 (ip), vehicle: gum acacia 96 % of control | dose: 400.0 mg/kg/injection, schedule: Q04DX002 (ip), vehicle: gum acacia 88 % of control

CCCCC1=CC(=O)C2CCCCC2C1=O (stereo unspecified)
inactive: [2] 102 % of control | dose: 200.0 mg/kg/injection, schedule: Q01DX001 (ip), vehicle: Klucel (hydroxypropylcellulose) (HPC) 105 % of control | dose: 400.0 mg/kg/injection, schedule: Q01DX001 (ip), vehicle: Klucel (hydroxypropylcellulose) (HPC) 92 % of control

Cc1nc(N)[nH]c(=O)c1CCCNC(=O)c1cccc([N+](=O)[O-])c1
inactive: dose: 50.0 mg/kg/injection, schedule: Q01DX001 (ip), vehicle: Klucel (hydroxypropylcellulose) (HPC) 108 % of control | [2] 114 % of control

O=C(Nc1ccc2c(c1)C(=O)c1ccccc1C2=O)Nc1cc(C(F)(F)F)ccc1Cl
inactive: [3] 103 % of control | dose: 200.0 mg/kg/injection, schedule: Q01DX009 (ip), vehicle: Klucel (hydroxypropylcellulose) (HPC) 97 % of control | dose: 400.0 mg/kg/injection, schedule: Q01DX009 (ip), vehicle: Klucel (hydroxypropylcellulose) (HPC) 88 % of control

CCC(=O)OC1(c2ccccc2)CCN(CCC(O)c2ccco2)CC1 (stereo unspecified)
inactive: dose: 40.0 mg/kg/injection, schedule: Q01DX009 (ip), vehicle: Klucel (hydroxypropylcellulose) (HPC) 97 % of control | dose: 80.0 mg/kg/injection, schedule: Q01DX009 (ip), vehicle: Klucel (hydroxypropylcellulose) (HPC) 98 % of control | dose: 160.0 mg/kg/injection, schedule: Q01DX009 (ip), vehicle: Klucel (hydroxypropylcellulose) (HPC) 98 % of control

CN(CC1CNc2nc(N)[nH]c(=O)c2N1C)c1ccc(C(=O)NC(CCC(=O)O)C(=O)O)cc1 (stereo unspecified)
inactive: dose: 100.0 mg/kg/injection, schedule: Q01DX001 (ip), vehicle: saline 94 % of control | dose: 200.0 mg/kg/injection, schedule: Q01DX001 (ip), vehicle: saline 102 % of control | dose: 400.0 mg/kg/injection, schedule: Q01DX001 (ip), vehicle: saline 94 % of control

CSCC(NC(=O)OCc1ccccc1)C(=O)O (stereo unspecified)
inactive: dose: 50.0 mg/kg/injection, schedule: Q01DX009 (ip), vehicle: saline with Tween-80 111 % of control | [4] 111 % of control | [5] 101 % of control

N#Cc1ncn(C2OC(CO)C(O)C2O)c1N (stereo unspecified)
inactive: dose: 100.0 mg/kg/injection, schedule: Q01DX005 (ip), vehicle: saline 103 % of control | dose: 200.0 mg/kg/injection, schedule: Q01DX005 (ip), vehicle: saline 96 % of control

O=C(c1ccccc1)C(c1ccccc1)C(O)(C(F)(F)F)C(F)(F)F (stereo unspecified)
inactive: [4] 103 % of control | [5] 97 % of control

CCOc1ccc(NC2=C(OC)C(=O)C(Nc3ccc(OCC)cc3)=C(OC)C2=O)cc1
inactive: [1] 99 % of control | [6] 93 % of control

CSc1cccc(NC(=S)NC(=O)c2ccccc2)c1
inactive: [7] 96 % of control | [8] 94 % of control | [3] 91 % of control

Cc1ccc(CSc2ssc(=S)c2-c2ccccc2)cc1
inactive: [4] 101 % of control | dose: 100.0 mg/kg/injection, schedule: Q04DX003 (ip), vehicle: acetone 99 % of control | [5] 97 % of control | dose: 200.0 mg/kg/injection, schedule: Q04DX003 (ip), vehicle: acetone 98 % of control | dose: 400.0 mg/kg/injection, schedule: Q01DX009 (ip), vehicle: saline with Tween-80 95 % of control | dose: 400.0 mg/kg/injection, schedule: Q04DX003 (ip), vehicle: acetone 91 % of control

SC1c2cc(Cl)ccc2-c2c(Cl)cc(Cl)cc21 (stereo unspecified)
inactive: dose: 100.0 mg/kg/injection, schedule: Q01DX001 (ip), vehicle: carboxymethylcellulose (CMC) 93 % of control | dose: 200.0 mg/kg/injection, schedule: Q01DX001 (ip), vehicle: carboxymethylcellulose (CMC) 98 % of control | [6] 117 % of control

C=CC(=O)NC(C)=O
inactive: dose: 12.5 mg/kg/injection, schedule: Q04DX002 (ip), vehicle: Klucel (hydroxypropylcellulose) (HPC) 103 % of control | dose: 25.0 mg/kg/injection, schedule: Q04DX002 (ip), vehicle: Klucel (hydroxypropylcellulose) (HPC) 92 % of control | dose: 50.0 mg/kg/injection, schedule: Q04DX002 (ip), vehicle: Klucel (hydroxypropylcellulose) (HPC) 95 % of control

COc1cc(OC)c(N=CN(C)C)cc1Cl
inactive: [7] 104 % of control | [8] 102 % of control | dose: 75.0 mg/kg/injection, schedule: Q01DX009 (ip), vehicle: Klucel (hydroxypropylcellulose) (HPC) 99 % of control and 105 % of control
